Test results from PubChem BioAssay (NCI).
Several values for one entry are separate records, joined by “and”; a condition that tells them apart may be missing. Equal values may be shown once.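 Each compound was tested at five concentrations against cells in 96-well plates for 48 hours. GI50: concentration for 50% inhibition of growth. Definition used: TGI = concentration required for complete inhibition of growth.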

Tests used:
Assay in all cases: DTP human tumour cell line panel, 48 h
SF-295 CNS = tested on: SF-295 CNS
UACC-62 melanoma = tested on: UACC-62 melanoma
MDA-MB-435 = tested on: MDA-MB-435
RPMI-8226 leukemia = tested on: RPMI-8226 leukemia
MDA-MB-231 breast = tested on: MDA-MB-231 breast
HOP-92 NSCLC = tested on: HOP-92 NSCLC
HOP-62 NSCLC = tested on: HOP-62 NSCLC
NCI-H460 lung = tested on: NCI-H460 lung
TK-10 renal = tested on: TK-10 renal
OVCAR-5 ovarian = tested on: OVCAR-5 ovarian

SMILES	GI50 (SF-295 CNS)	TGI (SF-295 CNS)	GI50 (UACC-62 melanoma)	TGI (UACC-62 melanoma)	GI50 (MDA-MB-435)	TGI (MDA-MB-435)	GI50 (RPMI-8226 leukemia)	TGI (RPMI-8226 leukemia) [µM]	GI50 (MDA-MB-231 breast)	TGI (MDA-MB-231 breast)	GI50 (HOP-92 NSCLC)	TGI (HOP-92 NSCLC)	GI50 (HOP-62 NSCLC)	TGI (HOP-62 NSCLC)	GI50 (NCI-H460 lung)	TGI (NCI-H460 lung) [µM]	GI50 (TK-10 renal)	TGI (TK-10 renal)	GI50 (OVCAR-5 ovarian)	TGI (OVCAR-5 ovarian) [µM]
O=C1NC(=N[C@H](CO)c2ccccc2)S/C1=C\c1ccc2ncccc2c1	4.69 µM	> 20 µM	5.74 µM	24.7 µM	5.37 µM	> 25 µM	3.73 µM	10.9	7.71 µM	> 25 µM	4.59 µM	18.7 µM	6.73 µM	> 25 µM	3.71 µM	24.6	1.95 µM	20 µM	4.96 µM	20.1
CS(=O)(=O)N1CCc2c(-c3cnc(N)nc3)nc(N3CCOCC3)nc21	0.556 µM and 0.354 µM	3.91 µM and 3.29 µM	0.28 µM and 0.393 µM	2.24 µM and 2.9 µM	0.94 µM and 0.78 µM	> 10 µM and 12.6 µM	1.52 µM and 2.5 µM	> 100	1.29 µM and 1.26 µM	> 10 µM and 23.4 µM	0.102 µM and 0.112 µM	0.641 µM and 1.35 µM	1.26 µM and 0.795 µM	> 10 µM and 11.8 µM	0.333 µM and 0.286 µM	> 100	0.197 µM and 0.221 µM	3.25 µM and 4.09 µM	0.685 µM and 0.461 µM	> 62.6
COc1ccc2nc3cc(Cl)ccc3c(Nc3cc(C(C)C)c(O)cc3C)c2c1	1.36 µM	3.01 µM	1.72 µM	3.5 µM	1.8 µM	4.48 µM	0.663 µM	2.68	1.82 µM	3.97 µM	1.16 µM	3.11 µM	1.91 µM	3.48 µM	1.71 µM	3.45	1.75 µM	6.65 µM	3.03 µM	9.48
Cc1cc(C#Cc2ccccc2)ccc1-n1c(/C=C/c2cc(O)ccc2O)nc2ccccc2c1=O	1.35 µM	3.82 µM	1.52 µM	2.86 µM	1.67 µM	3.53 µM	1.26 µM	6.08	1.56 µM	3.16 µM	1.54 µM	4.33 µM	1.71 µM	3.79 µM	1.57 µM	2.91	2.03 µM	5.61 µM	1.39 µM	2.7
C=C1C(=O)C2(C)OC2(C)C1C(=O)O (stereo not given)		> 100 µM		> 100 µM		> 100 µM		> 100		> 100 µM		> 100 µM		> 100 µM		> 100		> 100 µM		> 100
CC1COCCN1CC#CCOC(=O)c1cc2ccccc2oc1=O (stereo not given)	> 100 µM	> 100 µM	> 100 µM	> 100 µM	> 100 µM	> 100 µM	> 100 µM	> 100	> 100 µM	> 100 µM	72.5 µM	> 100 µM	> 100 µM	> 100 µM	> 100 µM	> 100	> 100 µM	> 100 µM	> 100 µM	> 100
CC/C(=N/N=C(N)N)c1ccc(NC(=O)Nc2ccc(/C(CC)=N/N=C(N)N)cc2)cc1	3.99 µM	19 µM	5.13 µM	22.7 µM	3.72 µM	16.2 µM	1.62 µM	8.85	6.88 µM	28.1 µM	5.67 µM	35.2 µM	10.7 µM	42.6 µM	4.1 µM	> 100	2.31 µM	9.96 µM	18.8 µM	44.6
CC(C)[C@H](C(=O)O[C@@H]1/C=C/C(=O)O[C@@H](C)CCC/C=C/[C@@H]2C[C@H](O)C[C@H]21)N(C)C	4.85 µM	25.1 µM	16.8 µM	> 89.2 µM	5.84 µM	> 55.8 µM	8.12 µM	36.8	12.8 µM	51.9 µM	36.4 µM	96.4 µM	17.2 µM	> 100 µM	27.7 µM	82.5	14.7 µM	60.8 µM	20.4 µM	> 89.5
O=C1C(Br)=CC2(C=C1Br)CCNc1c(O)c3c4c(c12)=NCCC=4C=N3		2.56 µM		0.233 µM		0.245 µM		0.212		0.409 µM		0.185 µM		5.34 µM		1.64		0.792 µM		1.28
FC(F)(F)c1ccc(NCc2nc3ccccc3[nH]2)cc1	18.7 µM	65.8 µM	18.7 µM	56.5 µM	22.4 µM	74.6 µM	20.7 µM	67.8	22.8 µM	78.2 µM	12.9 µM	36.8 µM	28.8 µM	96.4 µM	19.5 µM	47.7	38.2 µM	> 100 µM	27.8 µM	78.3
O=c1c2cc(O)c(O)cc2oc2cc(O)c(C3OC(CO)C(O)C(O)C3O)c(O)c12 (stereo not given)		> 100 µM		> 100 µM		> 100 µM		> 100		> 100 µM		> 100 µM		> 100 µM		> 100		> 100 µM		> 100
Fc1ccc(-c2c(-c3ccncc3)[nH]c3nccnc23)cc1	> 15.1 µM	> 25 µM	6.33 µM	> 25 µM	11.6 µM	> 25 µM	> 25 µM	> 25	> 14.4 µM	> 25 µM	> 25 µM	> 25 µM	> 15.3 µM	> 25 µM	7.11 µM	> 21.3	5.94 µM	> 21.6 µM	11.2 µM	> 25
Oc1cccc(-c2nc(-c3ccccc3)[nH]c2-c2ccncc2)c1	14.7 µM	> 25 µM	1.59 µM	> 25 µM	4.31 µM	> 25 µM	13.5 µM	> 25	9.59 µM	> 25 µM	5.98 µM	24.2 µM	16.8 µM	> 25 µM	11.6 µM	> 25	16.5 µM	> 25 µM	16.9 µM	> 25
